For 3 compounds, remaining binding results are on record in US12275731B2, “Azaindole inhibitors of wild-type and mutant forms of LRRK2” (DANA-FARBER CANCER INSTITUTE, INC., priority 2018, dated 2025).

Holding throughout (assay): KinomeScan profiling
Common to all, as to format: binding

One experiment has as its target T1, NEK9 (Homo sapiens, UniProt Q8TD19).
T1 sequence (Q8TD19 1-979): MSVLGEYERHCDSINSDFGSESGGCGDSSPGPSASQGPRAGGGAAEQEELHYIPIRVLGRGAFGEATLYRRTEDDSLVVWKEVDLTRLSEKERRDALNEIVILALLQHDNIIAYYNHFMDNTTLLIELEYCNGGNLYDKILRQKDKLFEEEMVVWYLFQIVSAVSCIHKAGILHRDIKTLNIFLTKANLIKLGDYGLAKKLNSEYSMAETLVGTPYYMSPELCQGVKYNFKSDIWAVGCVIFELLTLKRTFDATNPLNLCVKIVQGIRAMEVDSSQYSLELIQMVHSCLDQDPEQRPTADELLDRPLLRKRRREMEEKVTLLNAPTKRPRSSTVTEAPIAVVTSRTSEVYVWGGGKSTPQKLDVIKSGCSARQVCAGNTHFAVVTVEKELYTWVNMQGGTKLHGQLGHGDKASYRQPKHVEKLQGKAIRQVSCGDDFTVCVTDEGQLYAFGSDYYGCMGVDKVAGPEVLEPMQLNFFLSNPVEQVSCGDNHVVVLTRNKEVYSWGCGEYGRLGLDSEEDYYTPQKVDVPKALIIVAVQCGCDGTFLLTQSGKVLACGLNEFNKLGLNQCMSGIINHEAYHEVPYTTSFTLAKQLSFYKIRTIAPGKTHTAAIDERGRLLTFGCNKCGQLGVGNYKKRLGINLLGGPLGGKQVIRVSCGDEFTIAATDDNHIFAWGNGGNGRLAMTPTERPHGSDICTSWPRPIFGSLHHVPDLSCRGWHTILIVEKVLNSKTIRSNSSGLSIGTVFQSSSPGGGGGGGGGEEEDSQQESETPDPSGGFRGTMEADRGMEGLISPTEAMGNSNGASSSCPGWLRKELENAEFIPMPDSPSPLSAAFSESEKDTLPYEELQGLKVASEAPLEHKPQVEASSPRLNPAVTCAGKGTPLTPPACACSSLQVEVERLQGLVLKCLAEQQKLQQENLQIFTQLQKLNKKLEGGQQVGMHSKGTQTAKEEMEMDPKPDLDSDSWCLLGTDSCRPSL
Particulars: NEK9, 1 μM; read-out: % control. The procedure, abridged:
(§1)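 1 μM cpd in DMSO; 468-kinase panel; readout RLU. % ctrl = (cpd − pos ctrl)/(neg ctrl − pos ctrl) ×100. Pos ctrl = 0%, DMSO = 100%. Hit cut-off <35%.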

The target of another experiment is T2, STK33 (Homo sapiens, UniProt Q9BYT3).
T2 construct: purchased KinomeScan® (panel service)
T2 sequence (Q9BYT3 whole entry): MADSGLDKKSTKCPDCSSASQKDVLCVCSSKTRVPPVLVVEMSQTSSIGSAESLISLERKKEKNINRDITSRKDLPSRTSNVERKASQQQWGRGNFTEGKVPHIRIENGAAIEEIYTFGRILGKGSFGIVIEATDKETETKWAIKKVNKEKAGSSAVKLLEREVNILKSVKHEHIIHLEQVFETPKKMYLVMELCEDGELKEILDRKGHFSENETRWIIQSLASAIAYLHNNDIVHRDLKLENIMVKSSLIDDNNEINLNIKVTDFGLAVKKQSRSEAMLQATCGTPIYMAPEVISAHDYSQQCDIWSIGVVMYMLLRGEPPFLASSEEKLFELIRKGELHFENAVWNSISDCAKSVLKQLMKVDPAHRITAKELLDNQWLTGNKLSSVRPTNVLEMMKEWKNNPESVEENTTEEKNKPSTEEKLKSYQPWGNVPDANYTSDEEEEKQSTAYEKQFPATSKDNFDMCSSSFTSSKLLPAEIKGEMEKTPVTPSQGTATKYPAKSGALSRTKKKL
The note with it: STK33, 1 μM; read-out: % control. The procedure, abridged: as §1

A further experiment has as its target T3, FLT3(D835H) (Homo sapiens, UniProt P36888, D835H).
T3 sequence (P36888 27-993 D835H): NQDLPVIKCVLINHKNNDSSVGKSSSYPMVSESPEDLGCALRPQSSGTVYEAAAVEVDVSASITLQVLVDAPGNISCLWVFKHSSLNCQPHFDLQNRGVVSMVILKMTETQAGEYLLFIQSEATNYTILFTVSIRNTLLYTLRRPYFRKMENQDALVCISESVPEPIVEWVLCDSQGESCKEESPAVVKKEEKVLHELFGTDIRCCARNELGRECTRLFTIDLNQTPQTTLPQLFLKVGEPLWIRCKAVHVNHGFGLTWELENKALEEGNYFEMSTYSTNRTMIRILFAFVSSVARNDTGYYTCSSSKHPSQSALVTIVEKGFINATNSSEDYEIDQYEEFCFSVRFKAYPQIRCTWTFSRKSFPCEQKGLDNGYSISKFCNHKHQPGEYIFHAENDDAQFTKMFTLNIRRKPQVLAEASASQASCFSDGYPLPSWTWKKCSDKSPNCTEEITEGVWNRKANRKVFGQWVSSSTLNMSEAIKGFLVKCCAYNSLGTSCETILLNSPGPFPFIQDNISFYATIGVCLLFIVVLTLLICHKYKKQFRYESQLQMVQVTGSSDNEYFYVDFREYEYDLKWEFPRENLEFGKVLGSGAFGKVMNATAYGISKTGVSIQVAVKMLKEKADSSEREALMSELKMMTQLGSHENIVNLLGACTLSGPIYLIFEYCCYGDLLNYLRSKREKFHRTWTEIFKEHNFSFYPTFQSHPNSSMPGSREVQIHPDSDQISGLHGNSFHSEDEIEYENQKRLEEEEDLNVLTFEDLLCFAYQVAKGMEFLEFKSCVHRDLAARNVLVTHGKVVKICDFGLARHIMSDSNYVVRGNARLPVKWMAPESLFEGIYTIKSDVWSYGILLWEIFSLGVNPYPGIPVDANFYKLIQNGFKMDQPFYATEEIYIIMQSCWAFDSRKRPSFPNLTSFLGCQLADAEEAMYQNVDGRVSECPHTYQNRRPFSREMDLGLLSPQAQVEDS
The note with it: read-out: % control. The procedure, abridged:
as §1

The next experiment has as its target T4, ABL1-phosphorylated (Homo sapiens, UniProt P00519).
T4 construct: purchased KinomeScan®
Particulars: read-out: % control. A digest of the protocol: as §1

A further experiment concerns the target T5, PKAC-beta (Homo sapiens, UniProt P22694).
T5 construct: purchased KinomeScan® (panel service)
The note with it: read-out: % control. The procedure, abridged:
as §1

Experiment [1] deals with T6, RSK3(Kin.Dom.2-C-terminal) (Homo sapiens, UniProt Q15349).
T6 construct: RSK3(Kin.Dom.2-C-terminal)
T6 sequence (Q15349 415-672 limits assumed): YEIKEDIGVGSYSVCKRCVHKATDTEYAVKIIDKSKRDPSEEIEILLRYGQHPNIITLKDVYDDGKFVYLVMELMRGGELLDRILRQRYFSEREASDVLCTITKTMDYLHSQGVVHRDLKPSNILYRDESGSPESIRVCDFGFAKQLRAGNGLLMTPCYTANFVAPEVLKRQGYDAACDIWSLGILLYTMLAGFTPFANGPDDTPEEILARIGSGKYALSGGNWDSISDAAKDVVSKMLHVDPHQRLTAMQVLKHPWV
The note with it: read-out: % control. The procedure, abridged:
as §1

In another experiment the target is PIK3C2B (Homo sapiens, UniProt O00750). Particulars: read-out: % control. The procedure, abridged:
as §1

The target of the next experiment is MARK2 (Homo sapiens, UniProt Q7KZI7). Particulars: MARK2, 1 μM; read-out: % control. The procedure, abridged: as §1
A further experiment has as its target PCTK3 (Homo sapiens, UniProt Q07002). Particulars: PCTK3, 1 μM; read-out: % control. The procedure, abridged: as §1
The target of another experiment is T7, AAK1 (Homo sapiens, UniProt Q2M2I8).
T7 construct: purchased KinomeScan®
T7 sequence (Q2M2I8 whole entry): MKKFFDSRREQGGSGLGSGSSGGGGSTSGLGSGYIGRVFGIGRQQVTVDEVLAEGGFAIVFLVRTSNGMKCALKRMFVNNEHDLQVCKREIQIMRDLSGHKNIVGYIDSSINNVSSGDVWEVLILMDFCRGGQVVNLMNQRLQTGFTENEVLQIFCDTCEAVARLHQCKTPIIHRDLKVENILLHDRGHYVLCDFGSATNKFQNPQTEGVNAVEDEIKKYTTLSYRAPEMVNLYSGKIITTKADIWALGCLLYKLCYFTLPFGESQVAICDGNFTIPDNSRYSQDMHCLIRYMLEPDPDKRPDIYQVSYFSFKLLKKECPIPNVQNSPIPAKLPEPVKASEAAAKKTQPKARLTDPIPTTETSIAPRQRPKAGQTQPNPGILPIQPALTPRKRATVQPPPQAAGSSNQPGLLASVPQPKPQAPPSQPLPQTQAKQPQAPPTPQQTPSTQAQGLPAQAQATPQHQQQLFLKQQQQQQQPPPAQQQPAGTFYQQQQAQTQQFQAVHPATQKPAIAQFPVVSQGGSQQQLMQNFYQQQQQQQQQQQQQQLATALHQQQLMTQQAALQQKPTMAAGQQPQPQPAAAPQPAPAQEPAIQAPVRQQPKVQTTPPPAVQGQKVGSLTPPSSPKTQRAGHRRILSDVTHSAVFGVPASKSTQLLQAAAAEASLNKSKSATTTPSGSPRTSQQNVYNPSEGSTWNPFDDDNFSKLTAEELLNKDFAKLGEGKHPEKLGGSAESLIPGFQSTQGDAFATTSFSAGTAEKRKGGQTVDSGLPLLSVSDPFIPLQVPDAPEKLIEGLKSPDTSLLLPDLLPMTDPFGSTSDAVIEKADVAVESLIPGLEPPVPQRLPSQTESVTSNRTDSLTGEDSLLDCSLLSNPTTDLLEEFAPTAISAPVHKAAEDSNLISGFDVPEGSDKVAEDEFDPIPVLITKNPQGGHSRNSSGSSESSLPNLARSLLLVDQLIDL
The note with it: AAK1, 1 μM; read-out: % control. The procedure, abridged: as §1

PIK3C2B, sequence (O00750 whole entry): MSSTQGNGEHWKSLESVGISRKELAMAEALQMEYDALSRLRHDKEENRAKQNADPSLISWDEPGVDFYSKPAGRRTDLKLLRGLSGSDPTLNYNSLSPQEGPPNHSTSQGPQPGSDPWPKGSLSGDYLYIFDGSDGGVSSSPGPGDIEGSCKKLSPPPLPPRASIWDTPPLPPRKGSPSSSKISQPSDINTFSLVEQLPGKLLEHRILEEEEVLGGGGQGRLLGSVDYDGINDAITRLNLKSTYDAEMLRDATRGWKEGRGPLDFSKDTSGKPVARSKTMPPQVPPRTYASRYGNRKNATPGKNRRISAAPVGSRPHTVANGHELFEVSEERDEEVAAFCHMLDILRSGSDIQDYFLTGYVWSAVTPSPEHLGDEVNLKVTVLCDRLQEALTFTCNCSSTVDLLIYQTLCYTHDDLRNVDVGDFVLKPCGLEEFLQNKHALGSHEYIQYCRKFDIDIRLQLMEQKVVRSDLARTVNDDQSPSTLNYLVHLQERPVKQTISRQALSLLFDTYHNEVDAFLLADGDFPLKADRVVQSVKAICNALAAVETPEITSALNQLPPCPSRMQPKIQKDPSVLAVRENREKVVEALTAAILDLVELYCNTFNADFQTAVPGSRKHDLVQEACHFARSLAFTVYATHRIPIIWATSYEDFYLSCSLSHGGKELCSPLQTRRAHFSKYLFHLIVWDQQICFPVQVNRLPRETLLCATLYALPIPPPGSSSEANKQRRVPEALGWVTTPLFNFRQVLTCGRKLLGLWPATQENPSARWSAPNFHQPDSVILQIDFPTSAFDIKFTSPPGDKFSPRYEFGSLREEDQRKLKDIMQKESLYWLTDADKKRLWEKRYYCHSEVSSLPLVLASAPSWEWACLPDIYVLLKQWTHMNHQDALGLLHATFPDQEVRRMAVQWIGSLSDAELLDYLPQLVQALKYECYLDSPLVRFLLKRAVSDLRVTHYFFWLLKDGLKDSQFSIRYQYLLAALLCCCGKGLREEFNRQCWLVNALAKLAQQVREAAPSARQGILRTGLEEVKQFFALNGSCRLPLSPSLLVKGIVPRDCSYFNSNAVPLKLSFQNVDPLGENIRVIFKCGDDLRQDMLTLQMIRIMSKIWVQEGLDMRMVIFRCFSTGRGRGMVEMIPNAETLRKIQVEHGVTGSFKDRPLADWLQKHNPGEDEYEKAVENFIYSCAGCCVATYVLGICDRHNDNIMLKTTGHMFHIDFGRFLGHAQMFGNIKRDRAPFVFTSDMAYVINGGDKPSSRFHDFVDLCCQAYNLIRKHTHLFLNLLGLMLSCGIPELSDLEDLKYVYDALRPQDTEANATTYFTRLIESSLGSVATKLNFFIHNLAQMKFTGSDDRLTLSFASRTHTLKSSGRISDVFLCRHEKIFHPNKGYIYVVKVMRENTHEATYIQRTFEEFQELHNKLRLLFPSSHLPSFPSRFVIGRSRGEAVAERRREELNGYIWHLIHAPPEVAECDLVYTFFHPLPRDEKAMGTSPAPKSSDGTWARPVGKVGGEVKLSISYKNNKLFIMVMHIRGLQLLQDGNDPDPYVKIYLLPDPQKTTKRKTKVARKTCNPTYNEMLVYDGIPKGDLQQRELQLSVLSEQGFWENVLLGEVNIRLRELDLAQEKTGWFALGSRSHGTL
PCTK3, sequence (Q07002 whole entry): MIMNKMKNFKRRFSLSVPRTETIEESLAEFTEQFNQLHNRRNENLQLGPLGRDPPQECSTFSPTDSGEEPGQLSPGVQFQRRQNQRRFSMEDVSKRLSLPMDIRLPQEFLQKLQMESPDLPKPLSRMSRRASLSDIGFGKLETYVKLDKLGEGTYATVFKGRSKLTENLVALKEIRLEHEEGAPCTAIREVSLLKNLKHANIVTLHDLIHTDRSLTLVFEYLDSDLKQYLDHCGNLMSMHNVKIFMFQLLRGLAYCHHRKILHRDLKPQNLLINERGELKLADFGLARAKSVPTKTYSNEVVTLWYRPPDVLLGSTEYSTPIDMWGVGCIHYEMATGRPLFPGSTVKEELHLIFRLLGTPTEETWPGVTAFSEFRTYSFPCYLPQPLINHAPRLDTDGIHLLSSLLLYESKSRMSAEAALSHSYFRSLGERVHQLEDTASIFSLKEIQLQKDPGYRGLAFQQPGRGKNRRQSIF
T4 sequence (P00519 whole entry): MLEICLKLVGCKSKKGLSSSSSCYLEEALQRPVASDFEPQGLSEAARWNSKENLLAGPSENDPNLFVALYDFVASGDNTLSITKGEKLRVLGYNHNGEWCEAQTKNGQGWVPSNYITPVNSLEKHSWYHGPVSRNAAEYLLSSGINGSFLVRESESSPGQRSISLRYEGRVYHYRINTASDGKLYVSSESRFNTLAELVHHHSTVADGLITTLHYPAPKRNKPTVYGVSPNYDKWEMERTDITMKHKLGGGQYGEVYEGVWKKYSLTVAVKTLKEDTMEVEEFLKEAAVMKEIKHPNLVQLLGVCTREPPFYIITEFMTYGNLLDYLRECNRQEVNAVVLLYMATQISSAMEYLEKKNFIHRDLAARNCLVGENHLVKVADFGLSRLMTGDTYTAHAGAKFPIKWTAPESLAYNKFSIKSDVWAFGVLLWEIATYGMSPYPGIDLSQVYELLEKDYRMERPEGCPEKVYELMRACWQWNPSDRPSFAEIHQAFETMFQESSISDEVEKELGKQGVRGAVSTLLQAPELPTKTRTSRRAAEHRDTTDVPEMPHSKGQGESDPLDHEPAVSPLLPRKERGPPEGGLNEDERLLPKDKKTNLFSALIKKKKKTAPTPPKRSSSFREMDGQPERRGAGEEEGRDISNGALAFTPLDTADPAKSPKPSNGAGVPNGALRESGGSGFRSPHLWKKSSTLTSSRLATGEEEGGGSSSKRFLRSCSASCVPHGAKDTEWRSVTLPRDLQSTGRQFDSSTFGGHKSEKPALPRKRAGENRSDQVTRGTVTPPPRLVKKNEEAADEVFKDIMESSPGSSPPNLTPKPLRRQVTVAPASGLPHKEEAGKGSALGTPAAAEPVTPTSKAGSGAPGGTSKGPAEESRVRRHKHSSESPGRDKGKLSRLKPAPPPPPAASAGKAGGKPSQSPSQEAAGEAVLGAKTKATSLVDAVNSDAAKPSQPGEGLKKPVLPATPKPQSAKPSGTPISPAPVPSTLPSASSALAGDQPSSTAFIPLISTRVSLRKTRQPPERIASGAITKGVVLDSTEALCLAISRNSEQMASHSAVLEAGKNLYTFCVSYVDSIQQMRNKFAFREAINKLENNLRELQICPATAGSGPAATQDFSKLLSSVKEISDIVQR

As to `CNc1c(-c2cnn([C@H]3CCN(C(C)=O)C[C@@H]3F)c2)cnc2[nH]cc(Cl)c12` [Compound 77, 1-((3S,4S)-4-(4-(3-chloro-4-(methylamino)-1H-pyrrolo[2,3-b]pyridin-5-yl)-1H-pyrazol-1-yl)-3-fluoropiperidin-1-yl)ethan-1-one], the remaining binding at 1 µM on NEK9 turned out to be 100%; on STK33, 100%; at FLT3(D835H), 7.9%; on ABL1-phosphorylated, 62%; at PKAC-beta, 100%; in experiment [1], 100%. In addition, the remaining binding at 1 µM on PIK3C2B was determined as 100%; on MARK2, 86%; at PCTK3 it was 100%; on AAK1 it was 36%.
For `CNc1c(-c2ccc(C(=O)N3CCC(N4CCOCC4)CC3)cc2)cnc2[nH]cc(Cl)c12` [Compound 96, (4-(3-chloro-4-(methylamino)-1H-pyrrolo[2,3-b]pyridin-5-yl)phenyl)(4-morpholinopiperidin-1-yl)methanone], the remaining binding at 1 µM on NEK9 worked out at 100%; at STK33 it was 100%; at FLT3(D835H), 9.9%; at ABL1-phosphorylated, 88%; on PKAC-beta, 100%; in experiment [1] it was 78%. Besides, the remaining binding at 1 µM stood at 96% at PIK3C2B, 60% on MARK2, 100% at PCTK3 and 23% at AAK1.
Regarding `O=C(c1ccc(-c2cnc3[nH]cc(Cl)c3c2NC2CCCC2)cc1)N1CCC(N2CCOCC2)CC1` [Compound 101, (4-(3-chloro-4-(cyclopentylamino)-1H-pyrrolo[2,3-b]pyridin-5-yl)phenyl)(4-morpholinopiperidin-1-yl)methanone], the remaining binding at 1 µM at NEK9 came to 98%; at STK33, 100%; on FLT3(D835H), 41%; on ABL1-phosphorylated it was 97%; at PKAC-beta it was 90%; in experiment [1] it was 77%. The remaining binding at 1 µM on PIK3C2B amounted to 96%; at MARK2 it was 68%; at PCTK3 it was 96%; at AAK1, 67%.
